# Experiments:
# [1] = system: healthy rats (auricula, trachea, sternum, femoral/crural knee joint, lumbar spine disk cartilage); experiment: Chondrogenesis promoting effect with oral administration to healthy rats; type: in vivo, rat; settings: oral 2 g/kg/day for 4 weeks, 6-week-old male SD rats, vs 3% gum Arabic vehicle; histology
# Excerpt: “Compound A” obtained in Synthesis Example 1 above was suspended in a 3% gum Arabic solution and orally administered to 6-week-old male SD rats (Nihon SLC Corp./Nihon Charles River Corp.) at a dosage of 2 g/kg/day for 4 weeks.
# Each rat was then autopsied, the auricula, trachea, sternum, femoral/crural knee joint and lumbar spine (disk) were immersed for one week in 20% neutral buffer formalin (Wako Pure Chemical Industries, Co., Ltd.) and fixed, the sternum, femoral/crural knee joint and lumbar spine (disk) were then demineralized for 2 weeks with a 20% EDTA-4Na solution (pH 7.4, Wako Pure Chemical Industries), and observation sites were trimmed with a razor (Feather Co., Ltd.). Observation sites were trimmed from the auricula and trachea with a razor without demineralization.
# Each of the trimmed tissue samples was prepared into a paraffin embedded block using an automatic embedding apparatus (Sakura Corp.) and paraffin (equivalent mixture of products by Kokusan Kagaku Corp. and Fisher Scientific Corp.). Here, a paraffin automatic dispensing embedding center (Miles Scientific Corp.) was used to fix each paraffin block in a tissue sample cassette (TISSUE-TEK Corp.)
# The paraffin block was cut into 2 μm-thick sections using a microtome (Daiwa Optical Instruments Corp.) and microtome knife (Feather Co., Ltd.), and then attached onto slide glass (Matsunami Glass Corp.) and dried. […]
# [2] = system: rat knee joints; experiment: Chondrogenesis promoting effect with administration into rat knee joints; type: in vivo; settings: 1 mmol/L, 50 μL per day into right knee joint for 3 weeks
# Procedure: A 27G injection needle and 1 mL syringe (both by Terumo Corp.) were used to administer 1 mmol/L of “compound A” (dissolved in 50% DMSO dimethylsulfoxide)-physiological saline solution; DMSO by Junsei Chemical Corp., physiological saline by Otsuka Pharmaceutical Corp.) into the right knee joint of 10-week-old male SD rats (Nihon Charles River Corp.) at a dosage of 50 μL per day for 3 weeks.
# Another test group was administered 50% DMSO-physiological saline (by Junsei Chemical Corp. and Otsuka Pharmaceutical Corp., respectively) in the same manner as a vehicle control.
# After 3 weeks of daily administration, the rats were autopsied, and the distance between lateral and medial attachment sites of collateral ligament of the right femur was measured with calipers (Mitsutoyo Corp.) to determine the width of the femoral knee joint. Then, in the same manner as Example 1, tissue samples were prepared and stained with 0.3% Safranin O (Merck Co., Ltd.) and observed under a microscope (magnification: 10× object lens, product of Nihon Kogaku Corp.).
# [3] = system: rabbit osteoarthritis model; experiment: Pathology suppressing effect in a rabbit osteoarthritis model; type: in vivo; settings: 3.0 mmol/L, vs solvent alone
# Procedure: Rabbit osteoarthritis model was prepared using 12-week-old male NZW rabbits (Kitayama Labes Co., Ltd.), and performing partial menisectomy in right knee, and excision of the lateral collateral ligament and sesamoid ligament, according to the method of Colombo et al. (Arthritis Rheum. 26(7):875-886, 1983). Beginning on the 7th day after the operation, 500 μL of a 50% dimethylsulfoxide (DMSO) physiological saline solution (DMSO: Junsei Chemical Corp., physiological saline: Otsuka Pharmaceutical Corp.) or 3.0 mmol/L of compound A solution was intraarticularly administered once a day into the right knee joint for a period of 3 weeks. The daily dosage of compound A was 816.8 μg.
# On the day following the day of final administration, the right femoral distal and crural proximal sections were taken, and the femur was immersed overnight in 2% paraformaldehyde-2.5% glutaraldehyde fixing solution (both by Wako Pure Chemical Industries) for fixation, while the crus was immersed for one week in 20% neutral buffered formalin (Wako Pure Chemical Industries) for fixation.
# After post-fixation of the femoral distal section with 1% osmium solution (Wako Pure Chemical Industries), it was dipped in an increasing ethanol series for dehydrogenation, and then substituted with isoamyl acetate and subsequently dried with a critical point drying apparatus (Hitachi Co., Ltd.). The dried tissue surface was coated with gold using an ion sputter coating apparatus (Eiko Corp.), and the femoral condyle cartilage surface was observed using a scanning electron microscope (Hitachi Co., Ltd.) (FIGS. 15A and 15B). The area of the damaged sections of the articular cartilage in the electron photomicrograph was measured using IPAP image analysis software (Sumika Technoservice Co., Ltd.), and judged on the scale shown in Table 11 below.
# The proximal region of tibia was trimmed with a band saw (EXAKT Corp.) and then demineralized for 4 weeks with 20% EDTA-4Na solution (pH 7.4, Wako Pure Chemical Industries). […]
# [4] = 500 μL intraarticular once a day for 3 weeks from day 7 after operation
smiles,measurement,setting,value
"CCOC(CN1C(=O)[C@](CC(=O)Nc2ccc(C)cc2)(NC(=O)Nc2ccc(C)cc2)c2ccccc21)OCC [Compound A, (+)-1-(2,2-diethoxyethyl)-3-((4-methylphenyl)aminocarbonylmethyl)-3-(N′-(4-methylphenyl)ureido)indolin-2-one]","hyaline cartilage formation (auricula, trachea, sternum, knee joint, lumbar spine disk)",[1],accelerated hyaline cartilage formation in all of the organs
same,femoral knee joint width,"[2]; 10-week-old male SD rats, vs vehicle control",significantly larger
same,histological observation of femoral knee joint (Safranin O),[2]; rats,Safranin O-positive accelerated formation of cartilage tissue
same,medium grade lesion area of articular cartilage (scanning electron microscope),[3]; [4],significantly smaller area of damage
same,total lesion area of articular cartilage (scanning electron microscope),[3]; [4],significantly smaller area of damage
same,"total histological scores, except for the loss of superficial layer","[3]; 500 μL intraarticular once a day for 3 weeks, Safranin O stained tibia sections",significantly lower

# From US6716628B2, “Chondrogenesis promoters and indolin-2-one derivatives” (Chugai Seiyaku Kabushiki Kaisha, priority 1999, dated 2004)
